Experiments:
Dermacentor variabilis [1] = assay: Example 3: efficacy of afoxolaner and fluralaner liquid formulations per os in cats against Dermacentor variabilis; assay type: in vivo; settings: treatment group 2, 0.075 mg/kg daily (Days 0-29), liquid formulation
Description: Efficacy of Various Formulations of Isoxazoline Administered per os, i.e. by mouth, to Cats for the Treatment and Control of Dermacentor variabilis.
Methods: A pool of 36 cats are to be preliminarily infested with ˜50 unfed adult D. variabilis ticks in order to produce cats that can suitably sustain a reliable infestation rate, defined as approximately 25% of attached ticks being live at the end of a 48-hour period. The 30 cats with the highest live attached tick counts are to be selected for inclusion in the study. The cats are to be randomly assigned to a single control group and 4 treatment groups with 6 cats per treatment group.
(§1) The cats are to be housed individually during the study period and are to be fed a commercial dry cat food ration with ad libitum access to water.
Each cat in a treatment group (test groups 2-5) is to receive by mouth, preferably in combination with feed, a liquid formulation of isoxazoline. The dosage is to be administered to the cats on each of days 0-29 according to TABLE 2.
(§2) Cats in the control group are not to receive isoxazoline or any other tick control treatment. Each cat in the treatment group is to be offered its daily ration (dry food) and the individual doses of liquid formulation are to be administered after the individual cat has eaten at least 25% of its total daily ration. […]

[2] = Example 5: plasma concentration of isoxazoline in cats given medicated daily feed; assay type: in vivo, cat
Method: (§3) Each cat in a treatment group (Groups 2-4) is to receive a medicated daily feed from study days 0-29. Each medicated daily feed (Groups 2-4) is to be offered to the cats for 1 hour on each of days 0-29 according to test groups in TABLE 3.
Using the same study method as described above, blood is to be drawn at day 0 (day of the first administration of medicated feed) and days 2, 4, 7, 10, 14, 21 and 30 after the initial dose of isoxazoline is administered on day 0. The average concentration of isoxazoline in the blood for different dosage levels can then be determined.

Dermacentor variabilis [3] = assay: Example 1: efficacy of isoxazoline per os in cats against Dermacentor variabilis (attached tick comb counts); assay type: in vivo
Description: Efficacy of Isoxazoline Administered per os, i.e. by mouth, to Cats for the Treatment and Control of Dermacentor variabilis.
Methods: A pool of 14 cats are to be preliminarily infested with ˜50 unfed adult D. variabilis ticks in order to produce cats that can suitably sustain a reliable infestation rate, defined as approximately 25% attached ticks being live at the end of a 48-hour period. The 12 cats with the highest live attached tick counts are to be selected for inclusion in the study. The cats are to be divided into a control group and a treatment group with 6 cats in each group.
as §1
(§4) Each cat in the treatment group is to receive by mouth, preferably in combination with feed, a liquid formulation of isoxazoline. The dosage of 1.125 mg/kg is to be administered to the cats on each of days 0-29.
as §2, with “ration. After receiving the dose of isoxazoline, the cats are to be allowed to continue eating. This mimics incorporating the isoxazoline in feed.” for “ration.”

Dermacentor variabilis [4] = assay: Example 6: efficacy of Mivorilaner in medicated feed in cats against Dermacentor variabilis (FIG. 1); assay type: in vivo; settings: days 0-29, within 16 days
Method: FIG. 1. A graph of the arithmetic mean efficacy for treatment Group 2 (stars) and Group 3 (horizontal hash). Percent efficacy=[AM fleas CONTROL−AM fleas TREATED]/AM fleas CONTROL. Efficacy measured at 2, 16, 27, 30, and 37 days after Initial Treatment, with either 0.75 mg of Mivorilaner/kg (Group 2) or 1.5 mg of Mivorilaner/kg (Group 3).
(§5) Efficacy of Isoxazoline when Isoxazoline is Administered in a Medicated Feed for the Treatment and Control of Dermacentor variabilis.
Methods: A pool of cats are to be preliminarily infested with ˜100 unfed adult C. felis fleas in order to produce cats that can suitably sustain a reliable infestation rate, defined as approximately 50% retention of live fleas at the end of a 48-hour period. The cats with the highest live flea counts are to be randomly assigned to a single control group (Group 1) and 2 medicated feed treatment groups with 4 cats per group. The cats in groups 2 and 3 will receive Mivorilaner.
(§6) The cats are to be housed individually during the study period and are to have ad libitum access to water.
Each cat in a treatment group (Groups 2 and 3) is to receive a medicated daily feed from study days 0-29 according to TABLE 4.
The cats are to be fasted overnight prior to each daily treatment. […]

[5] = Example 4: plasma concentration of isoxazoline in cats given medicated feed; assay type: in vivo, cat; settings: medicated feed dosed at 1.5 mg/kg, five different feed formulations, Day 0 to Day 30
Method: Plasma Concentration of Isoxazoline in Cats when Isoxazoline is Administered in a Medicated Feed Dosed at 1.5 mg/kg of the Cat's Weight.
Methods: A pool of 30 cats are to be assigned to 5 groups of 6 cats per group by weight to minimize variation between and within the groups. Each group will be given a different feed formulation containing isoxazoline and the blood level of isoxazoline over the one month period following the single daily dose will be determined.
as §6
There is to be an initial acclimation period of at least 4 days during which cats are to be transitioned from a standard certified commercial cat feed to an unmedicated version of the daily cat feed. During the acclimation period, the cats are to be allowed 15 minutes/day to consume the feed.
Each medicated feed formulation should be able to deliver approximately 14.1 g/kg of daily feed containing isoxazoline. The amount of medicated feed for each cat is to be determined according to the most recent body weight of the cat prior to the first day (Day 0) of the study. Each medicated feed is to be provided for 15 minutes daily from Day 0 up to and including Day 30. Any uneaten medicated feed remaining after each daily 15 minute timed offering period is to be removed, weighed and the amount recorded. […]

[6] = Example 1: average plasma concentration of isoxazoline in cats, daily oral dosing; assay type: in vivo, cat; settings: 1.125 mg/kg daily
Method: as §4
Using the same study method as described above, blood is to be drawn at 72, 168, 336, 504, 720 and 888 hours after the initial dose of isoxazoline is administered. The average concentration of isoxazoline in the blood can then be determined.

Dermacentor variabilis [7] = assay: Example 5: efficacy of isoxazoline in medicated feed in cats against Dermacentor variabilis; assay type: in vivo; settings: 1 mg/kg, days 0-29, by day 14
Method: as §5
Methods: A pool of 24 cats are to be preliminarily infested with ˜50 unfed adult D. variabilis ticks in order to produce cats that can suitably sustain a reliable infestation rate, defined as approximately 25% of attached ticks being live at the end of a 48-hour period. The 18 cats with the highest live attached tick counts are to be randomly assigned to a single control group (Group 1) and 2 different medicated feed treatment groups (Groups 2 and 3) with 6 cats per group. The remaining 6 cats are to be assigned to a final medicated feed treatment group (Group 4).
as §6, §3
Cats in the control group are not to receive isoxazoline or any other tick control treatment. […]

Structure (SMILES)	efficacy (Dermacentor variabilis [1]; by day 14)	efficacy (Dermacentor variabilis [1]; by day 21)	plasma concentrations relative to treatment groups 2 and 3 ([2]; treatment group 4, 3 mg/kg daily, versus groups 2 and 3, 1 mg/kg daily)	plasma concentrations, comparison of feed formulations ([2]; treatment groups 2 and 3, 1 mg/kg daily, different feed formulations)	reduction in attached tick counts over the control group (Dermacentor variabilis [3]; 1.125 mg/kg by mouth daily days 0-29, within 7 days)	reduction in attached tick counts over the control group (Dermacentor variabilis [3]; 1.125 mg/kg by mouth daily days 0-29, within 14 days) [%]	efficacy (percent reduction in attached live and moribund tick counts) (Dermacentor variabilis [4]; treatment group 2, 0.75 mg/kg daily in wet cat food) [%]	efficacy (percent reduction in attached live and moribund tick counts) (Dermacentor variabilis [4]; treatment group 3, 1.5 mg/kg daily in wet cat food) [%]	mean plasma concentrations [5]	average plasma concentration ([6]; day 3)	average plasma concentration ([6]; day 21)	average plasma concentration ([6]; day 37, approximately 8 days after the final dose)	efficacy (Dermacentor variabilis [7]; treatment group 2, medicated daily feed)	efficacy (Dermacentor variabilis [7]; treatment group 3, medicated daily feed)
O=C(CNC(=O)c1ccc(C2=NOC(c3cc(Cl)cc(C(F)(F)F)c3)(C(F)(F)F)C2)c2ccccc12)NCC(F)(F)F (centres unmarked) [Afoxolaner, 4-{5-[3-chloro-5-(trifluoromethyl)phenyl]-5-(trifluoromethyl)-4,5-dihydroisoxazol-3-yl}-N-{2-oxo-2-[(2,2,2-trifluoroethyl)amino]ethyl}naphthalene-1-carboxamide]	greater than 80%	greater than 90%	–	–	–	–	–	–	–	–	–	–	–	–
O=C(CNC(=O)c1sc(C2=NO[C@@](c3cc(Cl)c(F)c(Cl)c3)(C(F)(F)F)C2)c2c1CCC2)NCC(F)F [mivorilaner, 3-[(5S)-5-(3,5-dichloro-4-fluorophenyl)-5-(trifluoromethyl)-4,5-dihydroisoxazol-3-yl]-N-[2-[(2,2-difluoroethyl)amino]-2-oxoethyl]-5,6-dihydro-4H-cyclopenta[c]thiophene-1-carboxamide]	–	–	2.5-4 times higher	consistent between treatment groups 2 and 3	at least 60%	90	100	100	consistent with those achieved in Examples 1 and 2	about 1011 ng/mL	about 4088	about 3025 ng/mL	greater than 95%	greater than 95%
